Among the data in patent US6855710B2, “Substituted indolines with an inhibitory effect on various kinases and complexes of CDKs” (Boehringer Ingelheim Pharma KG, priority 1998, dated 2005) are melting point values, retold here.

In general, melting point refers to the temperature of the solid-liquid transition. In the case of `CN(C)C(=O)CN(c1ccc(N/C(=C2\C(=O)Nc3ccc([N+](=O)[O-])cc32)c2ccccc2)cc1)S(=O)(=O)Cc1ccccc1` [Example 303, (Z)-3-{1-[4-(N-(dimethylaminocarbonylmethyl)-N-benzylsulphonyl-amino)-phenylamino]-1-phenyl-methylidene}-5-nitro-2-indolinone], the melting point fell in the range of 159 to 161 °C.

Regarding `CCCS(=O)(=O)N(CCN(C)C)c1ccc(N/C(=C2\C(=O)Nc3ccc([N+](=O)[O-])cc32)c2ccccc2)cc1` [Example 310, (Z)-3-{1-[4-(N-(2-dimethylaminoethyl)-N-propylsulphonyl-amino)-phenylamino]-1-phenyl-methylidene}-5-nitro-2-indolinone], the melting point was found to be 212 °C.

Compound `CC(=O)NCc1ccc(/C(Nc2ccc(N(CCN(C)C)S(C)(=O)=O)cc2)=C2/C(=O)Nc3ccccc32)cc1` [Example 427, (Z)-3-{1-[4-(N-(2-dimethylaminoethyl)-N-methylsulphonyl-amino)-phenylamino]-1-(4-acetylaminomethyl-phenyl)-methylidene}-2-indolinone] showed a melting point of 225 to 227 °C.

With `COC(=O)CCNC(=O)c1ccc(/C(Nc2ccc(CN3CCCCC3)cc2)=C2/C(=O)Nc3ccc([N+](=O)[O-])cc32)cc1` [Example 447, (Z)-3-[1-(4-piperidinomethyl-phenylamino)-1-(4-(2-methoxycarbonyl-ethylaminocarbonyl)-phenyl)-methylidene]-5-nitro-2-indolinone], the melting point was found to be 130 °C. Then `CN(CCN1CCOCC1)CC(=O)N(C)c1ccc(N/C(=C2\C(=O)Nc3ccccc32)c2ccccc2)cc1` [Example 374, (Z)-3-{1-[4-(N—(N-(2-morpholinoethyl)-N-methyl-aminomethyl-carbonyl)-N-methylamino)-phenylamino]-1-phenyl-methylidene}-2-indolinone], with 116 to 118 °C; and `C[C@H](N)c1ccc(N/C(=C2\C(=O)Nc3ccc([N+](=O)[O-])cc32)c2ccccc2)cc1.Cl`, with 230 to 235 °C; and `Cl.NCC(=O)NCc1ccc(N/C(=C2\C(=O)Nc3ccccc32)c2ccccc2)cc1`, with 190 to 195 °C.

For the compound `CCOC(=O)CCCN(c1ccc(N/C(=C2\C(=O)Nc3ccccc32)c2ccccc2)cc1)S(C)(=O)=O` [Example 195, (Z)-3-{1-[4-(N-(3-ethoxycarbonyl-propyl)-N-methylsulphonyl-amino)-phenylamino]-1-phenyl-methylidene}-2-indolinone], the melting point lay within 265 to 268 °C. For `CCC(=O)N(CCN1CCOCC1)c1ccc(N/C(=C2\C(=O)Nc3ccc([N+](=O)[O-])cc32)c2ccccc2)cc1` [Example 335, (Z)-3-{1-[4-(N-(2-morpholinoethyl)-N-propionyl-amino)-phenylamino]-1-phenyl-methylidene}-5-nitro-2-indolinone] the value was 232 °C; for `O=C1Nc2ccccc2/C1=C(/Nc1ccc(NCCN2CCOCC2)cc1)c1ccccc1` [Example 346, (Z)-3-{1-[4-(2-morpholinoethylamino)-phenylamino]-1-phenyl-methylidene}-2-indolinone], 257 °C. Turning to `CCOC(=O)Cc1cccc(N/C(=C2\C(=O)Nc3ccccc32)c2ccccc2)c1` [Example 11, (Z)-3-[1-(3-ethoxycarbonylmethyl-phenylamino)-1-phenyl-methylidene]-2-indolinone], the melting point lay within 178 to 181 °C.

In turn, `CCOC(=O)CN(c1ccc(N/C(=C2\C(=O)Nc3ccc([N+](=O)[O-])cc32)c2ccccc2)cc1)S(C)(=O)=O` [Example 198, (Z)-3-{-[4-(N-ethoxycarbonylmethyl-N-methylsulphonyl-amino)-phenylamino]-1-phenyl-methylidene}-5-nitro-2-indolinone] displayed a melting point of 236 to 238 °C. Then `CN(C)Cc1ccc(N/C(=C2\C(=O)Nc3ccc([N+](=O)[O-])cc32)c2ccc([N+](=O)[O-])cc2)cc1`, with 233 °C. For `CCCCNCc1ccc(N/C(=C2\C(=O)Nc3ccc([N+](=O)[O-])cc32)c2ccccc2)cc1` [Example 166, (Z)-3-[1-(4-butylaminomethyl-phenylamino)-1-phenyl-methylidene]-5-nitro-2-indolinone] the value was 183 °C; for `CN(C)CCN(C)S(=O)(=O)c1ccc(N/C(=C2\C(=O)Nc3ccccc32)c2ccccc2)cc1` [Example 400, (Z)-3-{1-[4-(N-(2-dimethylaminoethyl)-N-methyl-aminosulphonyl)-phenylamino]-1-phenyl-methylidene}-2-indolinone], 200 to 203 °C; for `CCOC(=O)CN(C(=O)c1ccccc1)c1ccc(N/C(=C2\C(=O)Nc3ccccc32)c2ccccc2)cc1` [Example 360, (Z)-3-{1-[4-(N-ethoxycarbonylmethyl-N-benzoyl-amino)-phenylamino]-1-phenyl-methylidene}-2-indolinone], 209 to 211 °C.

In the case of `O=C1Nc2ccc([N+](=O)[O-])cc2/C1=C(/Nc1ccc(CN2CCCCCC2)cc1)c1ccccc1` [Example 119, (Z)-3-[1-(4-hexamethyleneiminomethyl-phenylamino)-1-phenyl-methylidene]-5-nitro-2-indolinone], the melting point was 220 °C. Then `CN(C)CCN(C(=O)c1ccccc1)c1ccc(N/C(=C2\C(=O)Nc3ccccc32)c2ccccc2)cc1` [Example 452, (Z)-3-[1-(4-(N-(2-dimethylaminoethyl)-N-benzoyl-amino)-phenylamino)-1-phenyl-methylidene]-2-indolinone], with 272 to 274 °C. For `CC(=O)NCc1ccc(N/C(=C2\C(=O)Nc3ccccc32)c2ccccc2)cc1` [Example 56, (Z)-3-[1-(4-acetylaminomethyl-phenylamino)-1-phenyl-methylidene]-2-indolinone] the value was 207 to 210 °C; for `O=C1Nc2ccc([N+](=O)[O-])cc2/C1=C(/Nc1ccc(CN2CCOCC2)cc1)c1ccccc1` [Example 118, (Z)-3-[1-(4-morpholinomethyl-phenylamino)-1-phenyl-methylidene]-5-nitro-2-indolinone], 273 °C; for `Cl.Cl.O=C1Nc2ccc([N+](=O)[O-])cc2/C1=C(/Nc1ccc(CN2CCNCC2)cc1)c1ccccc1`, over 370 °C. `CNCc1ccc(N/C(=C2\C(=O)Nc3ccc([N+](=O)[O-])cc32)c2ccccc2)cc1.Cl` returned a melting point of 351 °C. For `O=C1Nc2ccc(Br)cc2/C1=C(/Nc1ccc(CN2CCCCC2)cc1)c1ccccc1` [Example 450, (Z)-3-[1-(4-piperidinomethyl-phenylamino)-1-phenyl-methylidene]-5-bromo-2-indolinone] the value was 170 °C; for `O=C1Nc2ccc([N+](=O)[O-])cc2/C1=C(/Nc1ccc(CCN2CCCCCC2)cc1)c1ccccc1` [Example 265, (Z)-3-{1-[4-(2-hexamethyleneimino-ethyl)-phenylamino]-1-phenyl-methylidene}-5-nitro-2-indolinone], 217 to 222 °C.

As for `CCOC(=O)C1CCN(CCc2ccc(N/C(=C3\C(=O)Nc4ccc([N+](=O)[O-])cc43)c3ccccc3)cc2)CC1` [Example 262, (Z)-3-{1-[4-(2-(4-ethoxycarbonyl-piperidino)-ethyl)-phenylamino]-1-phenyl-methylidene}-5-nitro-2-indolinone], the melting point fell in the range of 208 to 213 °C.
